Assay [1] addresses Transitional endoplasmic reticulum ATPase (Homo sapiens, UniProt P55072, C522A). Nature of the assay: Luminescence counterscreen assay for p97 inhibitors: dose response biochemical high throughput screening assay to identify inhibitors of the C522A mutant p97 ATPase: synthesized compounds. [Related pubchem assays: 1481, 1517, 1551 ].
Assay [2] addresses Transitional endoplasmic reticulum ATPase (Homo sapiens, UniProt P55072). Nature of the assay: Luminescence dose response biochemical high throughput screening assay for inhibitors of the p97 ATPase: synthesized compounds. [Related pubchem assays: 1481, 1517 ].
Assay [3] concerns the target T1, Neuropeptide Y receptor type 2 (Homo sapiens, UniProt P49146).
T1 sequence (P49146 whole entry): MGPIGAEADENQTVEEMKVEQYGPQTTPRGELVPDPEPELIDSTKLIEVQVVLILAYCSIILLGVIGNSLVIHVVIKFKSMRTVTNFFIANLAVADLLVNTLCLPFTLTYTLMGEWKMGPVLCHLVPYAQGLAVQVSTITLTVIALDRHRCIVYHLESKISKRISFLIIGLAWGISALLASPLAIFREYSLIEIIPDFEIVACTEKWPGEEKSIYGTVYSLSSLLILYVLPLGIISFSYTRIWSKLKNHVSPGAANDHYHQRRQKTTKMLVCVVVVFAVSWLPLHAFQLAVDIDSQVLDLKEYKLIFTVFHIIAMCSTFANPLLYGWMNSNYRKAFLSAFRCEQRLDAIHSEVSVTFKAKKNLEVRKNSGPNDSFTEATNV
Nature of the assay: IC50 for human NPY-Y2 blockade – cell-based, counter-screen for NPY-Y1 antagonist project, dose response (AID 1278). It is filed as functional. (In general: Counterscreens check selectivity or assay interference.)

The target in assay [4] is T2, Neuropeptide Y receptor type 1 (Homo sapiens, UniProt P25929).
T2 sequence (P25929 whole entry): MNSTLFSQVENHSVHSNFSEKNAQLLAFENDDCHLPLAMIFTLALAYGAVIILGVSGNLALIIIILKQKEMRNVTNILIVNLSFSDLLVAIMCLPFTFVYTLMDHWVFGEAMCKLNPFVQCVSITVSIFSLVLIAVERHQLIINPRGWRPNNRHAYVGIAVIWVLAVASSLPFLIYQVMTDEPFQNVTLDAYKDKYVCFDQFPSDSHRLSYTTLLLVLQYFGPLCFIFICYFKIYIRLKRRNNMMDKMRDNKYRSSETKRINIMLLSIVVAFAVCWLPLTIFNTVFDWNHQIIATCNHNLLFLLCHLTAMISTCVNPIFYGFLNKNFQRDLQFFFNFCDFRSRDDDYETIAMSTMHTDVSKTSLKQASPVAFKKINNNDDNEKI
Nature of the assay: IC50 of human NPY-Y1 blockers – cell-based, dose response (AID 1277). It is filed as functional.

Assay [5] addresses ATP-sensitive inward rectifier potassium channel 1 (Homo sapiens, UniProt P48048). Nature of the assay: Kir1.1 channel inhibitor analog potency – cell-based, thallium flux, analog library, SAR follow-up (AID 435017). It is filed as functional.

Calls of active or inactive are those of the source. Unless noted, the rule behind the calls is not given here.

Sequence of ATP-sensitive inward rectifier potassium channel 1 (P48048 whole entry): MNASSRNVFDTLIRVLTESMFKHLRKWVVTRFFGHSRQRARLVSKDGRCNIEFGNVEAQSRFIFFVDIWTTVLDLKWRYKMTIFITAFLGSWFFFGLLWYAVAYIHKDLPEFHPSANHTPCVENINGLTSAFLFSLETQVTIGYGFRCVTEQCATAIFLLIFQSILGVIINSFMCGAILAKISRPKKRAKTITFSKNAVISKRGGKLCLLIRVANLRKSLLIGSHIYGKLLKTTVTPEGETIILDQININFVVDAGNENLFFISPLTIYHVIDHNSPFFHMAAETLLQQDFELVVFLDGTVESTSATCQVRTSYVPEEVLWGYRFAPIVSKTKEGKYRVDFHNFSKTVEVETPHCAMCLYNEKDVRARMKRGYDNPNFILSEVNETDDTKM
Sequence of Transitional endoplasmic reticulum ATPase (Homo sapiens, UniProt P55072, C522A) (P55072 2-806 C522A limits assumed): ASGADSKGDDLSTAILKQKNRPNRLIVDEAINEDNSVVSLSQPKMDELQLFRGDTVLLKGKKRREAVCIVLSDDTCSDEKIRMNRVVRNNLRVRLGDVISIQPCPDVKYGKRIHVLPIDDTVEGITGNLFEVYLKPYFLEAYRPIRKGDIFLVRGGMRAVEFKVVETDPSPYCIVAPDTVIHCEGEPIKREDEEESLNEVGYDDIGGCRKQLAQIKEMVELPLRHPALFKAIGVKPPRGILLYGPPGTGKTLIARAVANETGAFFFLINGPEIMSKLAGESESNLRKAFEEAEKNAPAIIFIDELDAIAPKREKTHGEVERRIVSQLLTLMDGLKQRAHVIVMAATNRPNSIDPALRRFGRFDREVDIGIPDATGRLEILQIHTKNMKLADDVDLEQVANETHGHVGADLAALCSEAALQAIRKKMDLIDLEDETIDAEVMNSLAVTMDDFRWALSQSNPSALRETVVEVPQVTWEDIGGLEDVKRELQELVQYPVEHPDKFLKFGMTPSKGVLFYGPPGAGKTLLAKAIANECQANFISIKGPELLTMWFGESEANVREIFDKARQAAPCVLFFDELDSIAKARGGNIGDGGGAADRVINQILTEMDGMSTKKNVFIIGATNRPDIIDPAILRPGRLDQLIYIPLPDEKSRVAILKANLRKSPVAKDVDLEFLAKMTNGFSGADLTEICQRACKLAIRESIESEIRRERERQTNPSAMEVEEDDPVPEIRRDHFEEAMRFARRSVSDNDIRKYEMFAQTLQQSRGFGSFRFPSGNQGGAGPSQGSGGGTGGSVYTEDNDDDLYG
Sequence of Transitional endoplasmic reticulum ATPase (Homo sapiens, UniProt P55072) (P55072 whole entry): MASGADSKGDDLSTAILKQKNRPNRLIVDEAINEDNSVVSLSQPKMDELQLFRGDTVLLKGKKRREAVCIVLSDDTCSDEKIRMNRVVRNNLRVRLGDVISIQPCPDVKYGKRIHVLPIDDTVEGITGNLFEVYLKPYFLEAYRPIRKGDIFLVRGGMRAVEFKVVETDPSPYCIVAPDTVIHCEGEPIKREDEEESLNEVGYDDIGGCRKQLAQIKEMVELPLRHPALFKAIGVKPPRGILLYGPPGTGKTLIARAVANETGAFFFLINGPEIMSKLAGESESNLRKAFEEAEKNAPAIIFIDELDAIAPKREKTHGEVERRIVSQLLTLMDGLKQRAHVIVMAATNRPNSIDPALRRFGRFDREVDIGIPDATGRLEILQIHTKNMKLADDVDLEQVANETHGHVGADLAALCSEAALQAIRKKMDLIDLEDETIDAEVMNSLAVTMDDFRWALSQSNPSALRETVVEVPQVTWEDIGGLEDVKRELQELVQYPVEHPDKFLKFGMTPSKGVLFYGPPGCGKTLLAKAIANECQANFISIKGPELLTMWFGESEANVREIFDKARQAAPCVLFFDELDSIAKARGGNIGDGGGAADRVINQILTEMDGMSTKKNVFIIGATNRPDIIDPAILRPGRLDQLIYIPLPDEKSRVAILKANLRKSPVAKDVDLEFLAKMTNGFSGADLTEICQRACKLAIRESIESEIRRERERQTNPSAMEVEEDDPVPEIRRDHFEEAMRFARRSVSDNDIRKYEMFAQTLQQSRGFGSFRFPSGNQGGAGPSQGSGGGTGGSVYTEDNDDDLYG

As to `CCOC(=O)/C(C#N)=C/c1c2ccccc2cc2ccccc12`, the concentration for half-maximal inhibition (IC50) in assay [1] and in assay [2] was > 50 µM (not active) throughout.

For `CNCc1cc(Cl)cc(OC)c1OC(C)C`, the IC50 in assay [3] and in assay [4] was > 35 µM (not active) each time.

`O=[N+]([O-])c1ccc(CN2CCOCCOCCN(Cc3ccc([N+](=O)[O-])cc3)CCOCC2)cc1`: the IC50 – broadly, the midpoint of a concentration-inhibition curve – in assay [5] was 0.273 µM (active).

(Values after ChEMBL document CHEMBL1201862, “PubChem BioAssay data set” (2004).)
